Test results reported in ChEMBL document CHEMBL1201862, “PubChem BioAssay data set” (2004).
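Cells were grown in 96-well plates and exposed to each compound for 48 hours at five concentrations; endpoints were interpolated linearly between bracketing concentrations, or set to the highest concentration if not reached. Abbreviation: GI50, concentration required for 50% inhibition of growth.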 Active and inactive are the calls of the source. Rule as the data show it: active = GI50 up to about 1.1 µM and inactive = higher.

Columns and labels:
Test in all cases: DTP human tumour cell line panel, 48 h
[1] = tested on: MOLT-4
[2] = tested on: LOX IMVI
[3] = tested on: NCI-H522
[4] = tested on: NCI-H460
[5] = tested on: NCI-H226
[6] = tested on: SK-OV-3
[7] = tested on: IGROV-1
[8] = tested on: NCI-H23
[9] = tested on: Malme-3M
[10] = tested on: SF-268
[11] = tested on: K562
[12] = tested on: DU-145
[13] = tested on: SK-MEL-5
[14] = tested on: HCT-116
[15] = tested on: BT-549
[16] = tested on: OVCAR-4
[17] = tested on: OVCAR-8
[18] = tested on: HCT-15
[19] = tested on: A498
[20] = tested on: RPMI-8226

Compound	GI50 [1]	GI50 [2]	GI50 [3]	GI50 [4]	GI50 [5]	GI50 [6]	GI50 [7]	GI50 [8]	GI50 [9]	GI50 [10]	GI50 [11]	GI50 [12]	GI50 [13]	GI50 [14]	GI50 [15]	GI50 [16]	GI50 [17]	GI50 [18] [µM]	GI50 [19]	GI50 [20]
Cc1ccc(S(=O)(=O)N/C(=N\O)Nc2ccc(Cl)c(Cl)c2)cc1	1.98 µM (inactive)	4.11 µM (inactive)	4.47 µM (inactive)	9.95 µM (inactive)	17.1 µM (inactive)	15 µM (inactive)	13.9 µM (inactive)	15.7 µM (inactive)	2.07 µM (inactive)	6.01 µM (inactive)	13 µM (inactive)	12 µM (inactive)	2.05 µM (inactive)	5.31 µM (inactive)	9.64 µM (inactive)	6.46 µM (inactive)	8.04 µM (inactive)	6.67	10.3 µM (inactive)	10.1 µM (inactive)
COc1c2ccoc2nc2c(OC)c(OCC(O)C(C)(C)O)ccc12 (stereo not given) [EVOXINE]	> 100 µM (inactive)	> 100 µM (inactive)	> 100 µM (inactive)	> 100 µM (inactive)	> 100 µM (inactive)	> 100 µM (inactive)	70 µM (inactive)	> 100 µM (inactive)	> 100 µM (inactive)	> 100 µM (inactive)	> 100 µM (inactive)	> 100 µM (inactive)	> 100 µM (inactive)	> 100 µM (inactive)	> 100 µM (inactive)	> 100 µM (inactive)	> 100 µM (inactive)	> 100	> 100 µM (inactive)	> 100 µM (inactive)
c1ccc(-c2c[nH]c(SC(c3ccccc3)c3ccccc3)n2)cc1	15.7 µM (inactive)	17.6 µM (inactive)	17.1 µM (inactive)	10.2 µM (inactive)	17.3 µM (inactive)	46.9 µM (inactive)	19.2 µM (inactive)	14.7 µM (inactive)	15 µM (inactive)	43.8 µM (inactive)	12.7 µM (inactive)	23.4 µM (inactive)	12.4 µM (inactive)	12.7 µM (inactive)	25.1 µM (inactive)	23.4 µM (inactive)	19.6 µM (inactive)	13.3	24.7 µM (inactive)	10.8 µM (inactive)
O=c1[nH]c2ccc(CC(=S)N3CCN(c4ccccc4)CC3)cc2o1	> 80.7 µM (inactive)	> 100 µM (inactive)	86.7 µM (inactive)	> 100 µM (inactive)	> 42 µM (inactive)	> 100 µM (inactive)	> 90.8 µM (inactive)	> 100 µM (inactive)	4.78 µM (inactive)	> 76.4 µM (inactive)	53.2 µM (inactive)	> 100 µM (inactive)	48.9 µM (inactive)	> 80.5 µM (inactive)	> 100 µM (inactive)	> 100 µM (inactive)	> 79.1 µM (inactive)	66.2	> 30 µM (inactive)	> 66.5 µM (inactive)
CCCCc1ccc(Nc2nc3c(ncn3C3CC(O)C(CN=[N+]=[N-])O3)c(=O)[nH]2)cc1 (stereo not given)	> 100 µM (inactive)	> 100 µM (inactive)	> 100 µM (inactive)	> 100 µM (inactive)	> 100 µM (inactive)	> 100 µM (inactive)	> 100 µM (inactive)	> 100 µM (inactive)	> 100 µM (inactive)	> 100 µM (inactive)	> 100 µM (inactive)	> 100 µM (inactive)	> 100 µM (inactive)	> 100 µM (inactive)	> 100 µM (inactive)	> 100 µM (inactive)	> 100 µM (inactive)	> 100	> 100 µM (inactive)	> 100 µM (inactive)
Cc1ccc2c(c1)C(=O)C1(C2)Cc2c(C)cccc2C1=O (stereo not given)	> 100 µM (inactive)	> 100 µM (inactive)	> 100 µM (inactive)	> 100 µM (inactive)	> 100 µM (inactive)	> 100 µM (inactive)	> 100 µM (inactive)	> 100 µM (inactive)	> 100 µM (inactive)	> 100 µM (inactive)	> 100 µM (inactive)	> 100 µM (inactive)	> 100 µM (inactive)	> 100 µM (inactive)	> 100 µM (inactive)	> 100 µM (inactive)	> 100 µM (inactive)	> 100	> 100 µM (inactive)	> 100 µM (inactive)
O=C(CC1C=Cc2ccccc2N1C(=O)c1ccccc1)c1ccccc1 (stereo not given)	11.7 µM (inactive)	23.6 µM (inactive)	13.8 µM (inactive)	22.8 µM (inactive)	34.4 µM (inactive)	30.9 µM (inactive)	19.1 µM (inactive)	23 µM (inactive)	21.7 µM (inactive)	27.1 µM (inactive)	19.9 µM (inactive)	50.8 µM (inactive)	13.3 µM (inactive)	16 µM (inactive)	23.8 µM (inactive)	34.8 µM (inactive)	29.2 µM (inactive)	26.2	28.9 µM (inactive)	10.9 µM (inactive)
